Data as given in patent US20250382305A1 (PTC THERAPEUTICS, INC., priority 2022, published 2025).

How the values were obtained:
ATXN3 pre-mRNA = test: RT-qPCR Assay to Quantify Exon 4 Skipping in ATXN3 pre-mRNA in Cells; assay type: cell-based; conditions: percent exon 4 skipping in ATXN3 pre-mRNA, RT-qPCR of cell lysates; average IC50
Procedure, shortened: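 Cells plated at 10,000/well onto a 7-point, 3.16-fold DMSO dilution series (duplicates), incubated 24 h at 37 °C, then lysed. Exon 4 skipping measured by one-step RT-qPCR (48 °C RT, 40 cycles); IC50 interpolated from dose-response fit of percent skipping.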

[1] = tested on: Total ATXN3 (tATXN3) protein; test: Endogenous Total ATXN3 (tATXN3) Protein Assay (MSD immunoassay of cell lysates); assay type: cell-based; conditions: average IC50, total ATXN3 protein in cell lysate after 48 h with compound (Table 1)
Procedure, shortened: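 Cells in DMEM/10% FBS were plated at 10,000 per well onto 7-point, 3.16-fold compound dilutions in duplicate for 48 h at 37° C, then lysed. Total ATXN3 in lysates was measured by MSD sandwich immunoassay: mouse anti-ATXN3 capture, rabbit anti-ATXN3 detection, SULFO-TAG anti-rabbit. Average IC50 was reported in star bins.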

| Compound | IC50 (ATXN3 pre-mRNA) [nM] | IC50 [1] [nM] |
| --- | --- | --- |
| N[C@H]1CCCN(c2ccccc2)[C@H]1c1sc2c(NCc3cccs3)cc(Cl)nc2c1Br (racemic) [Compound 125, 2-((2R,3S)-3-amino-1-phenylpiperidin-2-yl)-3-bromo-5-chloro-N-(thiophen-2-ylmethyl)thieno[3,2-b]pyridin-7-amine and 2-((2S,3R)-3-amino-1-phenylpiperidin-2-yl)-3-bromo-5-chloro-N-(thiophen-2-ylmethyl)thieno[3,2-b]pyridin-7-amine] | > 1000 | > 1000 |
| 2-((2R,3S)-3-aminotetrahydrofuran-2-yl)-3-bromo-5-chloro-N-(thiophen-2-ylmethyl)thieno[3,2-b]pyridin-7-amine and 2-((2S,3R)-3-aminotetrahydrofuran-2-yl)-3-bromo-5-chloro-N-(thiophen-2-ylmethyl)thieno[3,2-b]pyridin-7-amine [Compound 150] | 30 to 300 | 30 to 300 |
| CC#Cc1c(C2[C@@H](N)CCCC2(F)F)sc2c(NCc3cccs3)cc(Cl)nc12.CC#Cc1c(C2[C@H](N)CCCC2(F)F)sc2c(NCc3cccs3)cc(Cl)nc12 (mixture of isomers) [Compound 208, 2-((6R)-6-amino-2,2-difluorocyclohexyl)-5-chloro-3-(prop-1-yn-1-yl)-N-(thiophen-2-ylmethyl)thieno[3,2-b]pyridin-7-amine and 2-((6S)-6-amino-2,2-difluorocyclohexyl)-5-chloro-3-(prop-1-yn-1-yl)-N-(thiophen-2-ylmethyl)thieno[3,2-b]pyridin-7-amine] | ≤ 30 | ≤ 30 |
| CN(Cc1ccco1)c1cc(Cl)nc2c(C#CCCCO)c([C@H]3CC=CC[C@@H]3N)sc12 [Compound 336, 5-(2-((1S,6S)-6-aminocyclohex-3-en-1-yl)-5-chloro-7-((furan-2-ylmethyl)(methyl)amino)thieno[3,2-b]pyridin-3-yl)pent-4-yn-1-ol] | 30 to 300 | 30 to 300 |
| N[C@@H]1CCCCC[C@@H]1c1sc2c(NCc3cccs3)cc(Cl)nc2c1Cl [Compound 76, 2-((1S,2R)-2-aminocycloheptyl)-3,5-dichloro-N-(thiophen-2-ylmethyl)thieno[3,2-b]pyridin-7-amine] | > 1000 | > 1000 |
| Cc1c([C@H]2CCCC[C@@H]2N)sc2c(NCc3ccco3)nc(Cl)nc12 [Compound 60, 6-((1S,2S)-2-aminocyclohexyl)-2-chloro-N-(furan-2-ylmethyl)-7-methylthieno[3,2-d]pyrimidin-4-amine] | ≤ 30 | ≤ 30 |
| N[C@@H]1CCCO[C@H]1c1c(Cl)c2nc(Cl)nc(NCc3cccs3)c2n1C(F)F.N[C@H]1CCCO[C@@H]1c1c(Cl)c2nc(Cl)nc(NCc3cccs3)c2n1C(F)F (mixture of isomers) [Compound 346, 6-((2S,3S)-3-aminotetrahydro-2H-pyran-2-yl)-2,7-dichloro-5-(difluoromethyl)-N-(thiophen-2-ylmethyl)-5H-pyrrolo[3,2-d]pyrimidin-4-amine and 6-((2R,3R)-3-aminotetrahydro-2H-pyran-2-yl)-2,7-dichloro-5-(difluoromethyl)-N-(thiophen-2-ylmethyl)-5H-pyrrolo[3,2-d]pyrimidin-4-amine] | 30 to 300 | 30 to 300 |
| [2H]C1=C([2H])C([2H])([2H])[C@@H](c2sc3c(NCc4ccco4)nc(Cl)nc3c2C)[C@H](N)C1([2H])[2H] [Compound 449, 6-((1R,6R)-6-aminocyclohex-3-en-1-yl-2,2,3,4,5,5-d6)-2-chloro-N-(furan-2-ylmethyl)-7-methylthieno[3,2-d]pyrimidin-4-amine] | 300 to 1000 | 30 to 300 |
| N[C@H]1CCC[C@@H]1c1sc2c(NCc3cccs3)cc(Cl)nc2c1I [Compound 162, 2-((1S,2S)-2-aminocyclopentyl)-5-chloro-3-iodo-N-(thiophen-2-ylmethyl)thieno[3,2-b]pyridin-7-amine] | ≤ 30 | ≤ 30 |
| Cc1c([C@H]2CC=CC[C@@H]2N)sc2c(NCc3ccncc3F)nc(Cl)nc12 [Compound 253, 6-((1S,6S)-6-aminocyclohex-3-en-1-yl)-2-chloro-N-((3-fluoropyridin-4-yl)methyl)-7-methylthieno[3,2-d]pyrimidin-4-amine] | ≤ 30 | 30 to 300 |
| 3-bromo-5-chloro-2-[(2R,3S)-3-aminotetrahydropyran-2-yl]-N-(2-thienylmethyl)thieno[3,2-b]pyridin-7-amine and 3-bromo-5-chloro-2-[(2S,3R)-3-aminotetrahydropyran-2-yl]-N-(2-thienylmethyl)thieno[3,2-b]pyridin-7-amine [Compound 20] | 30 to 300 | 30 to 300 |
| Cc1c([C@H]2CCCC[C@H]2N)sc2c(NCc3cccs3)cc(Cl)nc12 [Compound 51, 2-((1S,2R)-2-aminocyclohexyl)-5-chloro-3-methyl-N-(thiophen-2-ylmethyl)thieno[3,2-b]pyridin-7-amine] | > 1000 | > 1000 |
| CN[C@H]1CCCC[C@@H]1c1sc2c(NCc3cccs3)cc(Cl)nc2c1C#CCCCO [Compound 264, 5-(5-chloro-2-((1S,2S)-2-(methylamino)cyclohexyl)-7-((thiophen-2-ylmethyl)amino)thieno[3,2-b]pyridin-3-yl)pent-4-yn-1-ol] | ≤ 30 | 30 to 300 |
| N[C@@H]1CCC[C@H]1c1sc2c(NCc3ccco3)cc(Cl)nc2c1Br [Compound 155, 2-((1R,2R)-2-aminocyclopentyl)-3-bromo-5-chloro-N-(furan-2-ylmethyl)thieno[3,2-b]pyridin-7-amine] | 300 to 1000 | > 1000 |
| (1R,2S,3R)-2-amino-3-(5-chloro-3-methyl-7-((thiophen-2-ylmethyl)amino)thieno[3,2-b]pyridin-2-yl)cyclohexan-1-ol and (1S,2R,3S)-2-amino-3-(5-chloro-3-methyl-7-((thiophen-2-ylmethyl)amino)thieno[3,2-b]pyridin-2-yl)cyclohexan-1-ol [Compound 374] | 30 to 300 | 30 to 300 |
| Cc1c([C@@H]2CCC[C@H]2N)sc2c(NCc3ccco3)cc(Cl)nc12 [Compound 145, 2-((1R,2R)-2-aminocyclopentyl)-5-chloro-N-(furan-2-ylmethyl)-3-methylthieno[3,2-b]pyridin-7-amine] | 30 to 300 | > 1000 |
| N[C@H]1CCCCC[C@@H]1c1sc2c(NCc3cccs3)cc(Cl)nc2c1Cl [Compound 79, 2-((1S,2S)-2-aminocycloheptyl)-3,5-dichloro-N-(thiophen-2-ylmethyl)thieno[3,2-b]pyridin-7-amine] | 30 to 300 | 30 to 300 |
| C/C=C/CNc1cc(Cl)nc2c(Br)c([C@@H]3CC=CC[C@H]3N)sc12.C/C=C/CNc1cc(Cl)nc2c(Br)c([C@H]3CC=CC[C@@H]3N)sc12 (mixture of isomers) [Compound 300, 2-((1R,6R)-6-aminocyclohex-3-en-1-yl)-3-bromo-N-((E)-but-2-en-1-yl)-5-chlorothieno[3,2-b]pyridin-7-amine and 2-((1S,6S)-6-aminocyclohex-3-en-1-yl)-3-bromo-N-((E)-but-2-en-1-yl)-5-chlorothieno[3,2-b]pyridin-7-amine] | 30 to 300 | 30 to 300 |
| N[C@@H]1CCCC[C@H]1c1sc2c(NCc3cccs3)cc(Cl)nc2c1C(F)(F)F.N[C@H]1CCCC[C@@H]1c1sc2c(NCc3cccs3)cc(Cl)nc2c1C(F)(F)F (mixture of isomers) [Compound 356, 2-((1S,2S)-2-aminocyclohexyl)-5-chloro-N-(thiophen-2-ylmethyl)-3-(trifluoromethyl)thieno[3,2-b]pyridin-7-amine and 2-((1R,2R)-2-aminocyclohexyl)-5-chloro-N-(thiophen-2-ylmethyl)-3-(trifluoromethyl)thieno[3,2-b]pyridin-7-amine] | 30 to 300 | 30 to 300 |
| 2-((1R,6R)-6-aminocyclohex-3-en-1-yl)-5-chloro-3-(propa-1,2-dien-1-yl)-N-(thiophen-2-ylmethyl)thieno[3,2-b]pyridin-7-amine and 2-((1S,6S)-6-aminocyclohex-3-en-1-yl)-5-chloro-3-(propa-1,2-dien-1-yl)-N-(thiophen-2-ylmethyl)thieno[3,2-b]pyridin-7-amine [Compound 324] | 30 to 300 | 30 to 300 |
| N[C@H]1CC=CC[C@@H]1c1sc2c(NCc3cccs3)nc(Cl)nc2c1I [Compound 182, 6-((1S,6S)-6-aminocyclohex-3-en-1-yl)-2-chloro-7-iodo-N-(thiophen-2-ylmethyl)thieno[3,2-d]pyrimidin-4-amine] | ≤ 30 | ≤ 30 |
| Cc1c([C@@H]2CCCC[C@@H]2N)sc2c(NCc3cccs3)cc(Cl)nc12 [Compound 50, 2-((1R,2S)-2-aminocyclohexyl)-5-chloro-3-methyl-N-(thiophen-2-ylmethyl)thieno[3,2-b]pyridin-7-amine] | 30 to 300 | 300 to 1000 |
| CCc1c([C@@H]2CCC[C@H]2N)sc2c(NCc3cccs3)cc(Cl)nc12 [Compound 12, 2-((1R,2R)-2-aminocyclopentyl)-5-chloro-3-ethyl-N-(thiophen-2-ylmethyl)thieno[3,2-b]pyridin-7-amine] | > 1000 | > 1000 |
| CCc1c([C@H]2CCCCC[C@@H]2N)sc2c(NCc3cccs3)cc(Cl)nc12 (single isomer, unassigned) [Compound 87, 2-((1S,2S)-2-aminocycloheptyl)-5-chloro-3-ethyl-N-(thiophen-2-ylmethyl)thieno[3,2-b]pyridin-7-amine or 2-((1R,2R)-2-aminocycloheptyl)-5-chloro-3-ethyl-N-(thiophen-2-ylmethyl)thieno[3,2-b]pyridin-7-amine] | 30 to 300 | 30 to 300 |
